A short description of test [1]: Inhibition of recombinant full-length Neisseria gonorrhoeae N-terminal His6-tagged GCYH1B expressed in Escherichia coli BL21 (DE3) using GTP as substrate incubated for 50 to 60 mins by fluorescence based assay.
Test [2] can be described thus: Inhibition of Thermus thermophilus HB8 GCYH1A expressed in Escherichia coli BL21 (DE3) using GTP as substrate incubated for 60 to 180 mins by spectrofluorimetric analysis.
Test [3] is described as follows: Inhibition of Neisseria gonorrhoeae GCYH1B.
The nature of test [4]: Inhibition of full-length human GCYH1A expressed in Escherichia coli using GTP as substrate incubated for 30 mins by fluorescence based assay.

pIC50, pKi: −log10 of the molar value.

Turning to `Nc1nc2c([nH]c(=O)n2[C@@H]2O[C@H](CO[P@@](=O)(O)O[P@@](=O)(O)OP(=O)(O)O)[C@@H](O)[C@H]2O)c(=O)[nH]1`, the pKi in test [1] was 6.82; in test [2], 8.27.
On to `Nc1nc(OC[C@@H](O)CO)c2[nH]c(=O)n([C@@H]3O[C@H](CO)[C@@H](O)[C@H]3O)c2n1`, for which the pIC50 in test [3] is 3.79; in test [4], 3.43.
With `Nc1nc(OC[C@H](O)CO)c2[nH]c(=O)n([C@@H]3O[C@H](CO)[C@@H](O)[C@H]3O)c2n1`, the negative-log IC50 (pIC50) is 3.87 in test [3] and 3.39 in test [4].
The compound `COc1nc2c(=O)[nH]c(N)nc2n1[C@@H]1O[C@H](CO)[C@@H](O)[C@H]1O` gave a pIC50 in test [3] of 3.43.
`Nc1nc(OCCO)c2[nH]c(=O)n([C@@H]3O[C@H](CO)[C@@H](O)[C@H]3O)c2n1`: the negative logarithm of the IC50 (pIC50) is 3.38 in test [3] and 3.66 in test [4].
